What was measured:
[1] = system: Platelet-derived growth factor receptor alpha (Homo sapiens), P16234 [V561D]; experiment: Inhibition of PDGFRalpha V561D mutant (unknown origin) at 100 nM
[2] = molecular target: Discoidin domain-containing receptor 2 (Homo sapiens) (UniProt Q16832); experiment: Inhibition of DDR2 (unknown origin) at 100 nM
[3] = molecular target: Serine/threonine-protein kinase PLK1 (Homo sapiens) (UniProt P53350); experiment: Inhibition of PLK1 (unknown origin) at 100 nM
[4] = molecular target: Tyrosine-protein kinase Tec (Homo sapiens) (UniProt P42680); experiment: Inhibition of TEC (unknown origin) at 100 nM
[5] = molecular target: DNA-dependent protein kinase catalytic subunit (Homo sapiens) (UniProt P78527); experiment: Inhibition of DNA-PK (unknown origin) at 100 nM
[6] = molecular target: Serine/threonine-protein kinase 33 (Homo sapiens) (UniProt Q9BYT3); experiment: Inhibition of STK33 (unknown origin) at 100 nM
[7] = molecular target: Cyclin-dependent kinase 1/cyclin B1 (Homo sapiens) (UniProt P06493+P14635); experiment: Inhibition of CDK1/cyclinB (unknown origin) at 100 nM; format: protein-complex assay
[8] = system: Leucine-rich repeat serine/threonine-protein kinase 2 (Homo sapiens), Q5S007 [G2019S]; experiment: Inhibition of LRRK2 G2019S mutant (unknown origin) at 100 nM
[9] = molecular target: Ephrin type-A receptor 8 (Homo sapiens) (UniProt P29322); experiment: Inhibition of EPHA8 (unknown origin) at 100 nM
[10] = molecular target: Dual specificity mitogen-activated protein kinase kinase 6 (Homo sapiens) (UniProt P52564); experiment: Inhibition of MKK6 (unknown origin) at 100 nM
[11] = molecular target: TGF-beta receptor type-1 (Homo sapiens) (UniProt P36897); experiment: Inhibition of TGFBR1 (unknown origin) at 100 nM
[12] = molecular target: RAC-beta serine/threonine-protein kinase (Homo sapiens) (UniProt P31751); experiment: Inhibition of AKT2 (unknown origin) at 100 nM
[13] = molecular target: Serine/threonine-protein kinase PAK 5 (Homo sapiens) (UniProt Q9P286); experiment: Inhibition of PAK7 (unknown origin) at 100 nM
[14] = molecular target: Tyrosine-protein kinase Fgr (Homo sapiens) (UniProt P09769); experiment: Inhibition of FGR (unknown origin) at 100 nM
[15] = molecular target: Myosin light chain kinase (Homo sapiens) (UniProt Q32MK0); experiment: Inhibition of MYLK3 (unknown origin) at 100 nM

Leucine-rich repeat serine/threonine-protein kinase 2 (Homo sapiens), Q5S007 [G2019S], sequence (Q5S007 whole entry G2019S): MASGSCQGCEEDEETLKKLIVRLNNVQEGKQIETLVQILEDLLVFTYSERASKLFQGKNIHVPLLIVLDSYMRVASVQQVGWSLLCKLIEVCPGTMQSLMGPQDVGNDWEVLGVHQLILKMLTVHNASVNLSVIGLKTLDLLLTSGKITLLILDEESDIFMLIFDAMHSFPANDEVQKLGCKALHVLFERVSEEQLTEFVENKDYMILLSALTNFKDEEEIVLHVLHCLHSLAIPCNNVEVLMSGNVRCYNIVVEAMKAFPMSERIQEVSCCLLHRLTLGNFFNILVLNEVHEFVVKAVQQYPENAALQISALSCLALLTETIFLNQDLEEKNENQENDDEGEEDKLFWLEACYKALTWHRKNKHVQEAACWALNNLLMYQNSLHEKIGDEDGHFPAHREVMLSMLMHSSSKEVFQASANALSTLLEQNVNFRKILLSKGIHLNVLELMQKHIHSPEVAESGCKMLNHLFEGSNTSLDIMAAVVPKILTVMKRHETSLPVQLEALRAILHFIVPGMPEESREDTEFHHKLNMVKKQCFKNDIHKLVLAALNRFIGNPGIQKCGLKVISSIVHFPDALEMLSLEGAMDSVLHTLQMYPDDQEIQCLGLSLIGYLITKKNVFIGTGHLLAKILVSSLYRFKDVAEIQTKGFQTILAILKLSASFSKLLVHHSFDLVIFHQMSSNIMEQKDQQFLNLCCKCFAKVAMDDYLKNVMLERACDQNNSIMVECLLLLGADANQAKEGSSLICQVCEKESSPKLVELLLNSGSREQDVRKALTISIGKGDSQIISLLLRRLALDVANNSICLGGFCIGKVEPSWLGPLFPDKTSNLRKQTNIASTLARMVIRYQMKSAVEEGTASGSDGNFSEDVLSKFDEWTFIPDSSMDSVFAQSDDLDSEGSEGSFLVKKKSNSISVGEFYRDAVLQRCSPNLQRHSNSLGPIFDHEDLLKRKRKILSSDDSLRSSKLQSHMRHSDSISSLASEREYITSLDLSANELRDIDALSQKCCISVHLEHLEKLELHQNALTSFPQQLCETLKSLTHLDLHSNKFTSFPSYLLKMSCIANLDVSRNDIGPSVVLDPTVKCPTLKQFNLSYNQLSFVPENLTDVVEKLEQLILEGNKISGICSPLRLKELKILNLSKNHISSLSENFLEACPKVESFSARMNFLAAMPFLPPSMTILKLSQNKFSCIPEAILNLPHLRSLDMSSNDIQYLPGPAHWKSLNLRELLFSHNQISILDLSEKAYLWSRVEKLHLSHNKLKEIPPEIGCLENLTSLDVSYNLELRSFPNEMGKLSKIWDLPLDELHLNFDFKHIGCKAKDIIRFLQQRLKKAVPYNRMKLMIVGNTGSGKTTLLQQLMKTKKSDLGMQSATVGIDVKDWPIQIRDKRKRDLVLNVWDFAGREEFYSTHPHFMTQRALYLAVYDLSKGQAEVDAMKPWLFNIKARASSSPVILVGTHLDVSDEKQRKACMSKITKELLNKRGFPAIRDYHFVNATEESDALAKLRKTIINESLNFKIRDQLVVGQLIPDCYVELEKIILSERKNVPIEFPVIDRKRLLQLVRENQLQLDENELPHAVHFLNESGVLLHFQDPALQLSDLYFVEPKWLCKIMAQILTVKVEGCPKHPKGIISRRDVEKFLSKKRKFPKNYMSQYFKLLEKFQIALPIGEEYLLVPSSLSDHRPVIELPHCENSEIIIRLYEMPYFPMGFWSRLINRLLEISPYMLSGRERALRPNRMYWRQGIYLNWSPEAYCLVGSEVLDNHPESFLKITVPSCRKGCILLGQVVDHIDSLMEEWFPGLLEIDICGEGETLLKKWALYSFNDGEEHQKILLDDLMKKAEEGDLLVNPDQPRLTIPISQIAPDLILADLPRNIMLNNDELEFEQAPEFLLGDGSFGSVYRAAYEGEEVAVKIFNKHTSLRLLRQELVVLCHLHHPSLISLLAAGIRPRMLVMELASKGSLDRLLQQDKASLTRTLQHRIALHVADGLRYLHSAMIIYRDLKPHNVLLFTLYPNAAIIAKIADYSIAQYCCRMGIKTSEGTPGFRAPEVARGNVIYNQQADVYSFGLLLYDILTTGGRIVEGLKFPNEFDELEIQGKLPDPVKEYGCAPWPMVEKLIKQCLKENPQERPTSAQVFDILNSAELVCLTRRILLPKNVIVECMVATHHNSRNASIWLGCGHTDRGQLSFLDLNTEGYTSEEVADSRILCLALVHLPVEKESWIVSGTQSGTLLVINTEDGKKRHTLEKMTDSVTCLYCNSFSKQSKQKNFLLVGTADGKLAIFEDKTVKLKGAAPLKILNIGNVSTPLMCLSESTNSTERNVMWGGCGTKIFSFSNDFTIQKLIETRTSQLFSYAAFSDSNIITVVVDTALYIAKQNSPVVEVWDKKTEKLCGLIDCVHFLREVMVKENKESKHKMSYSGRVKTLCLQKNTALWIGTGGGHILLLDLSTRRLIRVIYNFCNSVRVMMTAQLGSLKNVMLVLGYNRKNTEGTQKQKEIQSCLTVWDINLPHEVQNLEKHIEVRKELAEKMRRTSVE
Serine/threonine-protein kinase PAK 5 (Homo sapiens), sequence (Q9P286 whole entry, looked up): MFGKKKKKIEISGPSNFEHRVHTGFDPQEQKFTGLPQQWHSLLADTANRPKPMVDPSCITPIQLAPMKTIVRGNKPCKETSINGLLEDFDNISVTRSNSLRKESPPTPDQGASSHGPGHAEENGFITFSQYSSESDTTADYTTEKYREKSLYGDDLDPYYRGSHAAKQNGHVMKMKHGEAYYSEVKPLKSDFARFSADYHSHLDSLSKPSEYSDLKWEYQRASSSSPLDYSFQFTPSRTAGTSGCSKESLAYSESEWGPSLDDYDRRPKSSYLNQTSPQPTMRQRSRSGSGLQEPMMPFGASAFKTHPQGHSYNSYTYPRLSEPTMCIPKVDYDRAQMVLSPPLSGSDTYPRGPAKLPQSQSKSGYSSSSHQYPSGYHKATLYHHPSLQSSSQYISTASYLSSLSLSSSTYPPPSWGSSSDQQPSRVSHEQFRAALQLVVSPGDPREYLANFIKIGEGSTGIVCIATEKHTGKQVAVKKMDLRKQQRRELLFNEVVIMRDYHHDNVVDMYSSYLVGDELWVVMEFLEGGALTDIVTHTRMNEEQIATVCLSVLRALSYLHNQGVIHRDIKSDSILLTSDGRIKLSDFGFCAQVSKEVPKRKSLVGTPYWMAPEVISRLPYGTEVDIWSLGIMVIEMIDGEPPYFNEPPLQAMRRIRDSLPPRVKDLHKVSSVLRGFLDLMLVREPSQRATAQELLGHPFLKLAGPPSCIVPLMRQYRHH
Serine/threonine-protein kinase PLK1 (Homo sapiens), sequence (P53350 whole entry): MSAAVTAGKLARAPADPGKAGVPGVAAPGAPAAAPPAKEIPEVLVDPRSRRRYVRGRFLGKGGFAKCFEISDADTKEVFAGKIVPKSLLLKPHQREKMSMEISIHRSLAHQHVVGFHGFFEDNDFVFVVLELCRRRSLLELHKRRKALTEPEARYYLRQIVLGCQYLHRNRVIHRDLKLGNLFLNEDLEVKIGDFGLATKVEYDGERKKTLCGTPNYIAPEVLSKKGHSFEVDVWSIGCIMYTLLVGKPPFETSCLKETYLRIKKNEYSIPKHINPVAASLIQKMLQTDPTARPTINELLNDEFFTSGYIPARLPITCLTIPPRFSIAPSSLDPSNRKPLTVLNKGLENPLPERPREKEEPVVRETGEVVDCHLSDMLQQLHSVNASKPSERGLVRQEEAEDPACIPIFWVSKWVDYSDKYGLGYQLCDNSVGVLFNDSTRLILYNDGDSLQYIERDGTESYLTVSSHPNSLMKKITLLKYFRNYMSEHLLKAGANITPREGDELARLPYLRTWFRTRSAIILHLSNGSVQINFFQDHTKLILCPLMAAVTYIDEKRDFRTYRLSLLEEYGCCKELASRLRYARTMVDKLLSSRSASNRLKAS
Dual specificity mitogen-activated protein kinase kinase 6 (Homo sapiens), sequence (P52564 whole entry): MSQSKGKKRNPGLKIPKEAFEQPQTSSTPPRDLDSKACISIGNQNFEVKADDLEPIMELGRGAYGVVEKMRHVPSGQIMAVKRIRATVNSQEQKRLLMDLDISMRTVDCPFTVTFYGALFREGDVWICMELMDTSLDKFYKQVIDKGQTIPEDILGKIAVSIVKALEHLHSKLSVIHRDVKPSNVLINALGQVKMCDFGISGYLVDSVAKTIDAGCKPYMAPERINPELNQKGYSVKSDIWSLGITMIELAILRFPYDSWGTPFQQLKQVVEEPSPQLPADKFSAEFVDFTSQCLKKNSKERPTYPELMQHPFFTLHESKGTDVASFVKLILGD
Tyrosine-protein kinase Fgr (Homo sapiens), sequence (P09769 2-529 limits assumed): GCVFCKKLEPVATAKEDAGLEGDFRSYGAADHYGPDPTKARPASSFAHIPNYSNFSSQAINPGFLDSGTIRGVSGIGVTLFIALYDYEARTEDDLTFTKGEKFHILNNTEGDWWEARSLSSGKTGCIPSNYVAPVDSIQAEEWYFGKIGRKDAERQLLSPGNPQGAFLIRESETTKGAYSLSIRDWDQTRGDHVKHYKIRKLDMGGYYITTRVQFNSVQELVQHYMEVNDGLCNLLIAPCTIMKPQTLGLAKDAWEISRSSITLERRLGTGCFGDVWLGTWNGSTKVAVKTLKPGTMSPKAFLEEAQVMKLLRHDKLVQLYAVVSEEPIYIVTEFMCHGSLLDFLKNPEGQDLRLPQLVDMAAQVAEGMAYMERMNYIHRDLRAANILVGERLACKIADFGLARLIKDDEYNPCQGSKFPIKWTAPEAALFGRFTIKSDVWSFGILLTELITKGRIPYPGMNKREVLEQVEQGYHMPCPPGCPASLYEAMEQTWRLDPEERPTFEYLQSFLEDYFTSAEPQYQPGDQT

CC1(C)OCc2c(Nc3n[nH]c4ccccc34)nc(-c3cn[nH]c3)nc21
inhibition [1]: 89.2% | inhibition [2]: 23.4% | inhibition [3]: 4.9% | inhibition [4]: 0.1% | inhibition [5]: 7.5% | inhibition [6]: 4.2% | inhibition [7]: -3.1% | inhibition [8]: 16% | inhibition [9]: 24.9% | inhibition [10]: -0.9% | inhibition [11]: 97.9% | inhibition [12]: 8.8% | inhibition [13]: -1.8% | inhibition [14]: 83.7% | inhibition [15]: 20.6%
